For 19 compounds, IC50 and inhibition in vivo results are on record in patent US7855198B2, “Benzamide derivative or salt thereof” (Astellas Pharma Inc., priority 2003, dated 2010).

Counter-ions that a name gives are not always drawn.

The target in one assay is T1, human VR1 (Homo sapiens, UniProt Q8NER1).
T1 construct: A full-length cDNA encoding human VR1 was obtained by the following method; expressed in transfected cells; membrane preparation
As to the kind of experiment: Receptor binding assay ([3H]RTX) using membranes of VR1 stably expressing cell. Conditions: [3H]RTX binding, VR1/HEK293 membrane preparation. How it is done:
A full-length cDNA encoding human VR1 was obtained by the following method. First, human brain mRNA was reverse transcribed using a reverse transcriptase to synthesize a first strand cDNA. Then, using the first strand cDNA as a template, PCR according to Hot Start method was carried out using Taq DNA polymerase. The above PCR was carried out by first conducting thermal denaturation of 98° C. (1 min) and then repeating a cycle consisting of 98° C. (15 sec)/63° C. (30 sec)/72° C. (3 min) 35 times using an oligonucleotide consisting of a base sequence of 424th to 443rd in a known human VR1 cDNA sequence (Genbank AJ277028.1) as a sense primer and an oligonucleotide consisting of a complimentary sequence of a base sequence of 3082nd to 3100th as an antisense primer.
An amplified DNA fraction was cloned using pCR-XL-TOPO vector (TOPO XL PCR Cloning Kit; Invitrogen, USA). The resulting plasmid DNA was digested with a restriction enzyme EcoRI to isolate human VR1-cDNA alone, which was then integrated into pcDNA3.1(+) plasmid (Invitrogen, USA). The above genetic engineering operations were carried out in accordance with known methods (Sambrook, J. et al, Molecular Cloning—A Laboratory Manual”, Cold Spring Harbor Laboratory Press, NY, 2001) and directions attached to individual reagents.
Next, the resulting pcDNA3.1-VR1 was transduced into HEK293 cells or CHO-KL cells. VR1/HEK293 cells were selected using a DMEM medium (Invitrogen, USA) containing 10% FBS, 100 μg/ml streptomycin, 100 U/ml penicillin, and 400 μg/ml G418 and VR1/CHO cells were selected using a HumF12 medium (Invitrogen, USA) containing 10% FBS, 100 μg/ml streptomycin, 100 U/ml penicillin, and 400 μg/ml G418 to prepare receptor stably expressing cell lines. The receptor stably expressing cells were subcultured in respective above media.
After the above VR1/HEK293 cells were cultured in glass dishes in a large quantity, the medium was removed and cells were scraped up with adding ice-cooled PBS. They were centrifuged at 1,000 rpm at 4° C. for 10 minutes. After a buffer for homogenization (25 mM Tris-HCl, 220 mM sucrose, pH 7.4) was added to the resulting sediment and the whole was homogenized, it was centrifuged at 2,200 rpm at 4° C. for 10 minutes. The resulting supernatant was centrifuged at 30,000×g at 4° C. for 20 minutes and an operation of adding 25 mM Tris-HCl, pH 7.4 to the resulting sediment and centrifuging it at 30,000×g at 4° C. for 20 minutes was repeated twice. The resulting sediment was suspended in 25 mM Tris-HCl, pH 7.4 and protein concentration was determined using a protein assay staining solution (Bio Rad, USA). The membrane preparation thus prepared was stored at −80° C.
The test was carried out by modifying the method of [Neurosci. 57: 747-757 (1993)]. Assay buffer (25 mM Tris-HCl, 0.025% BSA, pH 7.4) (147 μl), 3 μl of a test compound, 50 μl of [^3H]RTX (about 50,000 dpm; Perkin-Elmer Life Science, USA), 100 μl of the above membrane preparation (protein amount of about 25 μg) were mixed and incubated at 37° C. for 60 minutes, and then the whole was incubated on ice for 10 minutes. An ice-cooled […] (AGP; Sigma) was added in an amount of 200 μg/50 μl, followed by further 5 minutes of incubation. The completion of the incubation was effected by rapid filtration of the mixture using a GF/B filter (Perkin-Elmer Life Science, USA). After the filter was washed with ice-cooled 25 mM Tris-HCl buffer (pH 7.4) seven times, radioactivity of the filter was measured by means of a liquid scintillation counter (2500TR; Packard, USA). With regard to a specific binding, of the total binding amount of [^3H]RTX and membrane fractions of VR1 receptor stably expressing cell, a portion substituted by 1 μM RTX was regarded as a specific binding derived from VR1 receptor. Evaluation of the test compound was conducted as follows. […]

Assay [1] concerns paw-licking action induced by capsaicin. As to the kind of experiment: Capsaicin test (paw-licking action). In kind it is in vivo. As to conditions: mouse, oral administration 30 mg/kg, 45 minutes before capsaicin; read-out: Inhibition ratio (%). How it is done:
The test was carried out in accordance with [Neuropharmacol. 31: 1279-1285 (1992)]. When 1.6 μg of capsaicin was administered to the planta of a mouse (ddY, male, 4- to 5-weeks old), a paw-licking action is induced. By measuring a time of expressing paw-licking action during 5 minutes after the administration, an inhibitory effect on pain behavior was evaluated. A test compound was administered intraperitoneally 30 minutes before the capsaicin administration or administered orally 45 minutes before the capsaicin administration. Evaluation of the test compound was conducted by determining each inhibition ratio in a test compound-administered group when the time of expressing paw-licking action in a vehicle-administered group was regarded as 100%.

T1 sequence (Q8NER1 whole entry): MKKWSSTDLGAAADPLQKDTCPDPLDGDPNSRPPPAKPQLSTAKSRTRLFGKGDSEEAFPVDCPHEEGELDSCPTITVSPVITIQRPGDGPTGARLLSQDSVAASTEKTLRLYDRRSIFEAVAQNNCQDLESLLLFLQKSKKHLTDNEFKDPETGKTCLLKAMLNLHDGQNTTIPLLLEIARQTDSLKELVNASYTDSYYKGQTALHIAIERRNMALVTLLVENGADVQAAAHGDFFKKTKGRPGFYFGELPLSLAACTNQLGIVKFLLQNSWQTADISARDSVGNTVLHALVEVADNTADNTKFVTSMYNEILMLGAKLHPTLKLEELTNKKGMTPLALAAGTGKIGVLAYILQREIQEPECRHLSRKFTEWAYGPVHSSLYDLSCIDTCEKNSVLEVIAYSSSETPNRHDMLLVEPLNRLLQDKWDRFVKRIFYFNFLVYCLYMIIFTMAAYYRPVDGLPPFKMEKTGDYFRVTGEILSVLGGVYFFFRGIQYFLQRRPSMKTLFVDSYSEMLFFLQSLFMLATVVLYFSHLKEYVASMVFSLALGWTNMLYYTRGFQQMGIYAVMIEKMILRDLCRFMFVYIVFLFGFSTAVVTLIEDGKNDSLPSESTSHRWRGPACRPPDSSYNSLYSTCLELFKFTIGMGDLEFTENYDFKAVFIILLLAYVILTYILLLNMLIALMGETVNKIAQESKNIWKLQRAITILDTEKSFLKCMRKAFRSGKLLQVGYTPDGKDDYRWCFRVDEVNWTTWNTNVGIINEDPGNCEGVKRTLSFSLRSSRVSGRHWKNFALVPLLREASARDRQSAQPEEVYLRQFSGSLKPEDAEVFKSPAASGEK

`COc1cccc(NC(=O)c2ccc(-c3ccccc3)c(CN3CCCCC3)c2)c1` [Example 1, N-(3-methoxyphenyl)-2-(piperidin-1-ylmethyl)biphenyl-4-carboxamide hydrochloride]: the IC50 (commonly the concentration needed to halve the response being measured) at human VR1 was not above 1 µM.

`O=C(Nc1ccc2scnc2c1)c1ccc(-c2ccccc2)c(CN2CCCCC2)c1` [Example 7] gave an IC50 at human VR1 not above 1 µM.

At human VR1, `O=C(Nc1ccc2scnc2c1)c1ccc(-c2ccccc2)c(CN2CCOCC2)c1` [Example 21] registered an IC50 not above 1 µM.

In the case of `CC(C)N(Cc1cc(C(=O)Nc2ccc3scnc3c2)ccc1-c1ccccc1)C1CCCCC1` [Example 33], the inhibition in vivo at 30 mg/kg in assay [1] stood at 66%. This compound had an IC50 on human VR1 not above 1 µM.

Compound `O=C1CCc2ccc(NC(=O)c3ccc(-c4ccccc4)c(CN4CCCCC4)c3)cc2N1` [Example 60] had an IC50 at human VR1 not above 1 µM.

At human VR1, `CN(C)c1ccc(NC(=O)c2ccc(-c3ccccc3)c(CN3CCCCC3)c2)cn1` [Example 71] showed an IC50 not above 1 µM.

For `CN1C(=O)CCc2ccc(NC(=O)c3ccc(-c4ccccc4)c(CN4CCCCC4)c3)cc21` [Example 78], in assay [1], the inhibition in vivo at 30 mg/kg is 76%. Besides, the IC50 on human VR1 is not above 1 µM.

As to `CC1Oc2ccc(NC(=O)c3ccc(-c4ccccc4)c(CN4CCCCC4)c3)cc2N(C)C1=O` (stereo not drawn) [Example 85], the inhibition in vivo at 30 mg/kg in assay [1] is 86%. This compound also had an IC50 on human VR1 not above 1 µM.

On to `CC1(C)C(=O)Nc2cc(NC(=O)c3ccc(-c4ccccc4)c(CN4CCCCC4)c3)ccc21` [Example 87], for which, in assay [1], the inhibition in vivo at 30 mg/kg came to 67%. The same compound showed an IC50 on human VR1 not above 1 µM.

At human VR1, `O=C(Nc1ccc2scnc2c1)c1ccc(-c2ccccc2)c(CN2CCC(F)CC2)c1` [Example 110] showed an IC50 not above 1 µM.

Compound `CC1CCN(C2CCCN(Cc3cc(C(=O)Nc4ccc5c(c4)NC(=O)C(C)O5)ccc3-c3ccccc3)C2)CC1` (stereo not drawn) [Example 122] yielded an IC50 on human VR1 not above 1 µM.

As to `CCN(Cc1cc(C(=O)Nc2ccc3c(c2)NC(=O)C(C)O3)ccc1-c1ccccc1)CC(C)(C)O` (stereo not drawn) [Example 123], the inhibition in vivo at 30 mg/kg in assay [1] was determined as 69%. For the same compound, the IC50 at human VR1 was not above 1 µM.

Turning to `Cn1c(=O)ccc2ccc(NC(=O)c3ccc(-c4ccccc4)c(CN4CCCCC4)c3)cc21` [Example 129], the inhibition in vivo at 30 mg/kg in assay [1] is 91%. At human VR1, this compound displayed an IC50 not above 1 µM.

Turning to `Cc1cc2ccc(NC(=O)c3ccc(-c4ccccc4)c(CN4CCCCC4)c3)cc2[nH]c1=O` [Example 130], the inhibition in vivo at 30 mg/kg in assay [1] was 62%. For the same compound, the IC50 at human VR1 is not above 1 µM.

The compound `CCN(CC)Cc1cc(C(=O)Nc2cc3c(c(C(F)(F)F)c2)CC(=O)N3)ccc1-c1ccccc1` [Example 143] gave an IC50 at human VR1 not above 1 µM.

For `CN1C(=O)CCc2ccc(NC(=O)c3ccc(-c4cccs4)c(CN4CCCCC4)c3)cc21` [Example 163], the IC50 at human VR1 is not above 1 µM.

`CCN(Cc1cc(C(=O)Nc2ccc3c(c2)N(C)C(=O)CC3)ccc1-c1ccccc1)C1CCOCC1` [Example 170]: the inhibition in vivo at 30 mg/kg in assay [1] worked out at 68%. The IC50 at human VR1 is not above 1 µM.

Turning to `CCN(Cc1cc(C(=O)Nc2ccc3c(c2)N(C)C(=O)CC3)ccc1-c1ccccc1)C1CCSCC1` [Example 181], at human VR1, the IC50 is not above 1 µM.

On human VR1, `CC(C)CN(CCN1CCCCC1)Cc1cc(C(=O)Nc2ccc3c(c2)NC(=O)C(C)O3)ccc1-c1ccccc1` (stereo not drawn) [Example 195] had an IC50 not above 1 µM.
